What was measured:
[1] = system: S. aureus DSM 20231; test: fitness (endpoint OD595 vs no drug) (fraction); higher = more growth
Summary of the method: (§1)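 Fitness compares growth at the stationary-phase transition with the robust mean of no-drug control wells, as a ratio of optical densities. The ratio is capped at 1. Wells of 384-well plates held 30 µl, or 55 µl for S. pneumoniae, inoculated at OD595 0.01. Readings at OD595 every 30 min for 14 h at 37 °C were corrected against the first reading.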

[2] = system: S. aureus Newman; test: as above
Summary of the method: as §1

[3] = system: S. pneumoniae D39V; test: as above
Summary of the method: as §1

[4] = system: B. subtilis 168; test: Bliss interaction score (quartile over a dose matrix) (fitness difference); higher = more antagonism (negative = synergy)
Summary of the method: (§2)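 Values were capped at 1 after dividing OD595 at stationary-phase entry by the plate's robust no-drug mean. This ratio is fitness, and single-drug fitness was inferred from the combination data. The Bliss score is observed minus product-expected fitness, given as quartiles over technical, biological and donor/recipient replicates.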

[5] = system: S. aureus DSM 20231; test: as above
Summary of the method: as §2

[6] = system: S. aureus Newman; test: as above
Summary of the method: as §2

[7] = system: S. pneumoniae D39V; test: as above
Summary of the method: as §2
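Wherever Bliss interaction score (quartile over a dose matrix) is given: first quartile when negative (synergy) and third quartile when positive (antagonism).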

CO/N=C(\C(=O)N[C@@H]1C(=O)N2C(C(=O)[O-])=C(C[N+]3(C)CCCC3)CS[C@H]12)c1csc(N)n1 [Cefepime] + CN[C@H](CC(C)C)C(=O)N[C@H]1C(=O)N[C@@H](CC(N)=O)C(=O)N[C@H]2C(=O)N[C@H]3C(=O)N[C@H](C(=O)N[C@H](C(=O)O)c4cc(O)cc(O)c4-c4cc3ccc4O)[C@H](O)c3ccc(c(Cl)c3)Oc3cc2cc(c3O[C@@H]2O[C@H](CO)[C@@H](O)[C@H](O)[C@H]2O[C@H]2C[C@](C)(N)[C@H](O)[C@H](C)O2)Oc2ccc(cc2Cl)[C@H]1O [Vancomycin]
Conditions | fitness
[1], first compound 0.125 µg/mL, partner 0.1875 µg/mL | 0.872
[1], first compound 0.125 µg/mL, partner 0.375 µg/mL | 0.868
[1], first compound 0.125 µg/mL, partner 0.75 µg/mL | 0.936
[1], first compound 0.25 µg/mL, partner 0.1875 µg/mL | 0.917
[1], first compound 0.25 µg/mL, partner 0.375 µg/mL | 0.902
[1], first compound 0.25 µg/mL, partner 0.75 µg/mL | 0.885
[1], first compound 0.5 µg/mL, partner 0.1875 µg/mL | 0.883
[1], first compound 0.5 µg/mL, partner 0.375 µg/mL | 0.864
[1], first compound 0.5 µg/mL, partner 0.75 µg/mL | 0.906
[2], first compound 0.125 µg/mL, partner 0.1875 µg/mL | 0.945
[2], first compound 0.125 µg/mL, partner 0.375 µg/mL | 0.946
[2], first compound 0.125 µg/mL, partner 0.75 µg/mL | 0.922
[2], first compound 0.25 µg/mL, partner 0.1875 µg/mL | 0.879
[2], first compound 0.25 µg/mL, partner 0.375 µg/mL | 0.867
[2], first compound 0.25 µg/mL, partner 0.75 µg/mL | 0.858
[2], first compound 0.5 µg/mL, partner 0.1875 µg/mL | 0.791
[2], first compound 0.5 µg/mL, partner 0.375 µg/mL | 0.802
[2], first compound 0.5 µg/mL, partner 0.75 µg/mL | 0.774
[3], first compound 0.007 µg/mL, partner 0.125 µg/mL | 0.992
[3], first compound 0.007 µg/mL, partner 0.25 µg/mL | 0.807
[3], first compound 0.007 µg/mL, partner 0.5 µg/mL | 0.0222
[3], first compound 0.0078 µg/mL, partner 0.03125 µg/mL | 0.977
[3], first compound 0.0078 µg/mL, partner 0.0625 µg/mL | 0.884
[3], first compound 0.0078 µg/mL, partner 0.125 µg/mL | 0.694
[3], first compound 0.014 µg/mL, partner 0.125 µg/mL | 0.944
[3], first compound 0.014 µg/mL, partner 0.5 µg/mL | 0.029
[3], first compound 0.0155 µg/mL, partner 0.03125 µg/mL | 0.879
[3], first compound 0.028 µg/mL, partner 0.125 µg/mL | 0.585
[3], first compound 0.028 µg/mL, partner 0.5 µg/mL | 0.0343
[3], first compound 0.031 µg/mL, partner 0.0625 µg/mL | 0.308
[3], first compound 0.031 µg/mL, partner 0.125 µg/mL | 0.269

Conditions | Bliss interaction score
[4] | -0.154
[5] | 0.0422
[6] | -0.0634
[7] | -0.121

CO/N=C(\C(=O)N[C@@H]1C(=O)N2C(C(=O)[O-])=C(C[N+]3(C)CCCC3)CS[C@H]12)c1csc(N)n1 [Cefepime] + COc1c(N2C[C@@H]3CCCN[C@@H]3C2)c(F)cc2c(=O)c(C(=O)O)cn(C3CC3)c12 [Moxifloxacin]
Conditions | fitness
[1], first compound 0.125 µg/mL, partner 0.0075 µg/mL | 0.664
[1], first compound 0.125 µg/mL, partner 0.015 µg/mL | 0.681
[1], first compound 0.125 µg/mL, partner 0.03 µg/mL | 0.616
[1], first compound 0.25 µg/mL, partner 0.0075 µg/mL | 0.69
[1], first compound 0.25 µg/mL, partner 0.015 µg/mL | 0.682
[1], first compound 0.25 µg/mL, partner 0.03 µg/mL | 0.592
[1], first compound 0.5 µg/mL, partner 0.0075 µg/mL | 0.766
[1], first compound 0.5 µg/mL, partner 0.015 µg/mL | 0.641
[1], first compound 0.5 µg/mL, partner 0.03 µg/mL | 0.565
[2], first compound 0.125 µg/mL, partner 0.0075 µg/mL | 0.748
[2], first compound 0.125 µg/mL, partner 0.015 µg/mL | 0.616
[2], first compound 0.25 µg/mL, partner 0.0075 µg/mL | 0.738
[2], first compound 0.25 µg/mL, partner 0.015 µg/mL | 0.615
[2], first compound 0.5 µg/mL, partner 0.0075 µg/mL | 0.695
[3], first compound 0.007 µg/mL, partner 0.0312 µg/mL | 0.146
[3], first compound 0.007 µg/mL, partner 0.0625 µg/mL | 0.0456
[3], first compound 0.007 µg/mL, partner 0.125 µg/mL | 0.0274
[3], first compound 0.0078 µg/mL, partner 0.005 µg/mL | ≥ 1
[3], first compound 0.0078 µg/mL, partner 0.01 µg/mL | 0.981
[3], first compound 0.0078 µg/mL, partner 0.02 µg/mL | ≥ 1
[3], first compound 0.014 µg/mL, partner 0.0312 µg/mL | 0.137
[3], first compound 0.014 µg/mL, partner 0.0625 µg/mL | 0.0527
[3], first compound 0.014 µg/mL, partner 0.125 µg/mL | 0.0539
[3], first compound 0.0155 µg/mL, partner 0.005 µg/mL | 0.987
[3], first compound 0.0155 µg/mL, partner 0.01 µg/mL | 0.971
[3], first compound 0.0155 µg/mL, partner 0.02 µg/mL | ≥ 1
[3], first compound 0.028 µg/mL, partner 0.0312 µg/mL | 0.077
[3], first compound 0.028 µg/mL, partner 0.0625 µg/mL | 0.0286
[3], first compound 0.028 µg/mL, partner 0.125 µg/mL | 0.0219
[3], first compound 0.031 µg/mL, partner 0.02 µg/mL | 0.805

fitness, [1], one replicate
Conditions | first compound 0.125 µg/mL | first compound 0.25 µg/mL | first compound 0.5 µg/mL
partner 0.06 µg/mL | 0.645 | 0.622 | 0.579
partner 0.12 µg/mL | 0.469 | 0.521 | 0.482

Conditions | Bliss interaction score
[4] | 0.0325
[5] | -0.101
[6] | 0.0732
[7] | -0.0484

CO/N=C(\C(=O)N[C@@H]1C(=O)N2C(C(=O)[O-])=C(C[N+]3(C)CCCC3)CS[C@H]12)c1csc(N)n1 [Cefepime] + COc1ccc(C[C@H](N)C(=O)N[C@H]2[C@@H](O)[C@H](n3cnc4c(N(C)C)ncnc43)O[C@@H]2CO)cc1 [Puromycin]
Conditions | fitness
[1], first compound 0.125 µg/mL, partner 0.39 µg/mL | 0.867
[1], first compound 0.125 µg/mL, partner 0.78 µg/mL | ≥ 1
[1], first compound 0.125 µg/mL, partner 1.56 µg/mL | 0.965
[1], first compound 0.25 µg/mL, partner 0.39 µg/mL | 0.932
[1], first compound 0.25 µg/mL, partner 0.78 µg/mL | 0.951
[1], first compound 0.25 µg/mL, partner 1.56 µg/mL | 0.924
[1], first compound 0.5 µg/mL, partner 0.78 µg/mL | 0.952
[1], first compound 0.5 µg/mL, partner 1.56 µg/mL | 0.907
[2], first compound 0.125 µg/mL, partner 0.39 µg/mL | 0.898
[2], first compound 0.125 µg/mL, partner 0.78 µg/mL | 0.94
[2], first compound 0.125 µg/mL, partner 1.56 µg/mL | 0.9
[2], first compound 0.25 µg/mL, partner 0.39 µg/mL | 0.831
[2], first compound 0.25 µg/mL, partner 0.78 µg/mL | 0.865
[2], first compound 0.25 µg/mL, partner 1.56 µg/mL | 0.865
[2], first compound 0.5 µg/mL, partner 0.39 µg/mL | 0.728
[2], first compound 0.5 µg/mL, partner 0.78 µg/mL | 0.764
[2], first compound 0.5 µg/mL, partner 1.56 µg/mL | 0.775
[3], first compound 0.007 µg/mL, partner 1 µg/mL | ≥ 1
[3], first compound 0.007 µg/mL, partner 2 µg/mL | 0.993
[3], first compound 0.007 µg/mL, partner 4 µg/mL | 0.873
[3], first compound 0.014 µg/mL, partner 1 µg/mL | ≥ 1
[3], first compound 0.014 µg/mL, partner 2 µg/mL | ≥ 1
[3], first compound 0.014 µg/mL, partner 4 µg/mL | 0.876
[3], first compound 0.028 µg/mL, partner 1 µg/mL | 0.961
[3], first compound 0.028 µg/mL, partner 2 µg/mL | 0.944
[3], first compound 0.028 µg/mL, partner 4 µg/mL | 0.771

fitness, one replicate
Conditions | first compound 0.0078 µg/mL | first compound 0.0155 µg/mL | first compound 0.031 µg/mL | first compound 0.125 µg/mL | first compound 0.25 µg/mL | first compound 0.5 µg/mL
[1], partner 3.12 µg/mL | – | – | – | 0.956 | 0.911 | 0.871
[1], partner 6.24 µg/mL | – | – | – | 0.781 | 0.857 | 0.716
[3], partner 1 µg/mL | 0.979 | 0.896 | 0.42 | – | – | –
[3], partner 2 µg/mL | 0.927 | 0.881 | 0.449 | – | – | –
[3], partner 4 µg/mL | 0.868 | 0.845 | 0.314 | – | – | –

Conditions | Bliss interaction score
[4] | 0.0941
[5] | 0.0605
[6] | -0.0741
[7] | 0.132

Source: the supplement of paper PMC10627819
